In patent US20210254056A1, “IDENTIFICATION AND TARGETED MODULATION OF GENE SIGNALING NETWORKS” (CAMP4 THERAPEUTICS CORPORATION, priority 2017, published 2021):

System: hepatocytes
Assay: RNA-seq of hepatocytes treated with Phase III failure compounds
Details: hepatocytes
Procedure: RNA-seq was performed to determine the effects of the compounds on hepatocytes.
Significance was determined by the criteria of FPKM≥0.5, a log 2(fold-change)≥1, and a […].

CCC(CC)[C@H](NC(C)=O)[C@@H]1[C@H](O)[C@@H](C(=O)O)C[C@H]1NC(=N)N.O.O.O [peramivir (trihydrate), peramivir]
RNA-seq results: BCKDK expression (gene BCKDK): −0.14
RNA-seq results: BCO1 expression (gene BCO1): −0.07
RNA-seq results: BCR expression (gene BCR): −0.02
RNA-seq results: BLNK expression (gene BLNK): −0.02
RNA-seq results: BLOC1S3 expression (gene BLOC1S3): 0.01
RNA-seq results: BMPR1A expression (gene BMPR1A): −0.14
RNA-seq results: BRAF expression (gene BRAF): −0.13
RNA-seq results: BSCL2 expression (gene BSCL2): −1.57
RNA-seq results: BTD expression (gene BTD): −0.14
RNA-seq results: C4A expression (gene C4A): 0.79
RNA-seq results: C9 expression (gene C9): −0.57
RNA-seq results: C10orf10 expression (gene C10orf10): 0.08
RNA-seq results: C10orf11 expression (gene C10orf11): −0.18
RNA-seq results: C15orf41 expression (gene C15orf41): −0.25
RNA-seq results: CA2 expression (gene CA2): −0.12
RNA-seq results: CA5A expression (gene CA5A): 0.03
RNA-seq results: CA12 expression (gene CA12): −0.29
RNA-seq results: CAV1 expression (gene CAV1): −0.36
RNA-seq results: CCND1 expression (gene CCND1): −0.01
RNA-seq results: CD46 expression (gene CD46): −0.29
RNA-seq results: CD81 expression (gene CD81): −0.08
RNA-seq results: CD320 expression (gene CD320): −0.01
RNA-seq results: CDAN1 expression (gene CDAN1): 0.23
RNA-seq results: CDH1 expression (gene CDH1): 0.05
RNA-seq results: CEP19 expression (gene CEP19): −0.09
RNA-seq results: CEP83 expression (gene CEP83): −0.20
RNA-seq results: CEP164 expression (gene CEP164): 0.39
RNA-seq results: CEP290 expression (gene CEP290): −0.30
RNA-seq results: CFB expression (gene CFB): −0.13
RNA-seq results: CFHR2 expression (gene CFHR2): −0.38
RNA-seq results: CHRM3 expression (gene CHRM3): −0.12
RNA-seq results: CIDEC expression (gene CIDEC): −0.45
RNA-seq results, CLDN1 expression (gene CLDN1): −0.36
RNA-seq results, COG1 expression (gene COG1): −0.10
RNA-seq results, COG5 expression (gene COG5): −0.36
RNA-seq results: COG5 expression (gene COG5): −0.22
RNA-seq results, COG6 expression (gene COG6): −0.54
RNA-seq results: COG6 expression (gene COG6): −0.08
RNA-seq results, COL1A1 expression (gene COL1A1): 0.33
RNA-seq results: COL1A1 expression (gene COL1A1): 0.09
RNA-seq results, COX6A1 expression (gene COX6A1): 0.39
RNA-seq results: COX6A1 expression (gene COX6A1): −0.01
RNA-seq results, CP expression (gene CP): −0.09
RNA-seq results: CP expression (gene CP): −0.27
RNA-seq results, CPS1 expression (gene CPS1): 0.01
RNA-seq results: CPS1 expression (gene CPS1): −0.63
RNA-seq results, CPT1A expression (gene CPT1A): −0.10
RNA-seq results: CPT1A expression (gene CPT1A): 0.13
RNA-seq results, CPT2 expression (gene CPT2): −0.19
RNA-seq results: CPT2 expression (gene CPT2): 0.05
RNA-seq results, CROT expression (gene CROT): −0.25
RNA-seq results: CROT expression (gene CROT): −0.4
RNA-seq results, CSPP1 expression (gene CSPP1): −0.06
RNA-seq results: CSPP1 expression (gene CSPP1): −0.05
RNA-seq results, CTC1 expression (gene CTC1): 0.10
RNA-seq results: CTC1 expression (gene CTC1): 0.2
RNA-seq results, CTDSP2 expression (gene CTDSP2): 0.00
RNA-seq results: CTDSP2 expression (gene CTDSP2): −0.07
RNA-seq results, CTH expression (gene CTH): 0.06
RNA-seq results: CTH expression (gene CTH): 0.6
RNA-seq results, CTNS expression (gene CTNS): −0.25
RNA-seq results: CTNS expression (gene CTNS): 0.65
RNA-seq results, CTSF expression (gene CTSF): 0.21
RNA-seq results: CTSF expression (gene CTSF): 0.3
RNA-seq results, CTSK expression (gene CTSK): 0.28
RNA-seq results: CTSK expression (gene CTSK): 0.04
RNA-seq results, CYB5A expression (gene CYB5A): 0.01
RNA-seq results: CYB5A expression (gene CYB5A): 0.34
RNA-seq results, CYB5R3 expression (gene CYB5R3): 0.00
RNA-seq results: CYB5R3 expression (gene CYB5R3): 0.13
RNA-seq results, CYP2B6 expression (gene CYP2B6): 0.07
RNA-seq results: CYP2B6 expression (gene CYP2B6): 0.12
RNA-seq results, CYP2C19 expression (gene CYP2C19): 0.25
RNA-seq results: CYP2C19 expression (gene CYP2C19): −0.31
RNA-seq results, CYP2D6 expression (gene CYP2D6): 0.24
RNA-seq results: CYP2D6 expression (gene CYP2D6): 0.22
RNA-seq results, CYP3A4 expression (gene CYP3A4): −0.53
RNA-seq results: CYP3A4 expression (gene CYP3A4): 0.77
RNA-seq results, CYP7B1 expression (gene CYP7B1): −0.16
RNA-seq results: CYP7B1 expression (gene CYP7B1): −0.34
RNA-seq results, CYP27A1 expression (gene CYP27A1): −0.21
RNA-seq results: CYP27A1 expression (gene CYP27A1): 0.28
RNA-seq results, CYP39A1 expression (gene CYP39A1): −0.20
RNA-seq results: CYP39A1 expression (gene CYP39A1): −0.11
RNA-seq results, DAO expression (gene DAO): 0.00
RNA-seq results: DAO expression (gene DAO): 0.13
RNA-seq results, DBT expression (gene DBT): −0.24
RNA-seq results: DBT expression (gene DBT): −0.32
RNA-seq results, DCDC2 expression (gene DCDC2): −0.04
RNA-seq results: DCDC2 expression (gene DCDC2): −0.6
RNA-seq results, DCXR expression (gene DCXR): −0.20
RNA-seq results: DCXR expression (gene DCXR): 0.16
RNA-seq results, DDC expression (gene DDC): −0.41
RNA-seq results: DDC expression (gene DDC): −0.25
RNA-seq results, DDO expression (gene DDO): 0.12
RNA-seq results: DDO expression (gene DDO): 0.12
RNA-seq results, DENR expression (gene DENR): −0.36
RNA-seq results: DENR expression (gene DENR): −0.13
RNA-seq results, DHCR7 expression (gene DHCR7): 0.04
RNA-seq results: DHCR7 expression (gene DHCR7): 0.32
RNA-seq results, DHCR24 expression (gene DHCR24): −0.16
RNA-seq results: DHCR24 expression (gene DHCR24): −0.14
RNA-seq results, DHODH expression (gene DHODH): 0.27
RNA-seq results: DHODH expression (gene DHODH): 0.22
RNA-seq results, DIS3L2 expression (gene DIS3L2): −0.14
RNA-seq results: DIS3L2 expression (gene DIS3L2): −0.14
RNA-seq results, DKC1 expression (gene DKC1): −0.11
RNA-seq results: DKC1 expression (gene DKC1): −0.05
RNA-seq results, DLAT expression (gene DLAT): −0.15
RNA-seq results: DLAT expression (gene DLAT): −0.21
RNA-seq results, DLD expression (gene DLD): −0.35
RNA-seq results: DLD expression (gene DLD): −0.3
RNA-seq results, DMGDH expression (gene DMGDH): −0.11
RNA-seq results: DMGDH expression (gene DMGDH): −0.15
RNA-seq results, DNAH5 expression (gene DNAH5): −0.05
RNA-seq results: DNAH5 expression (gene DNAH5): −0.1
RNA-seq results, DNM1L expression (gene DNM1L): −0.28
RNA-seq results: DNM1L expression (gene DNM1L): −0.12
RNA-seq results, DOLK expression (gene DOLK): 0.09
